What all share (test): biochemical
Holding throughout (design): LanthaScreen kinase activity assay (Thermo Fisher), dose-dependent inhibition by C-604
Holding throughout (settings): read-out: IC50 (C-604)
In general terms: TR-FRET usually uses a lanthanide donor and a delayed reading to cut background.

For one assay, the target named is GSK3B (Homo sapiens, UniProt P49841). As to the method: (§1) To identify potential C-604 off-targets, we utilised a commercially available off-target screening service (Thermo Fisher Scientific) to assess the impact of C-604 on the in vitro activity of 100 human kinases (Supplementary Fig. 8a). Out of 100 tested targets, C-604 (1 µM) inhibited GWL (inhibition 95%) and an additional 10 kinases (inhibition ≥ 80%). […] The in vitro off-target effects of compound C-604 were determined by assessing its inhibitory potential in a panel of 100 human kinases using the LanthaScreen Kinase Activity Assay (Thermo Fisher Scientific).

The next assay concerns the target T1, STK17A (Homo sapiens, UniProt Q9UEE5).
T1 sequence (Q9UEE5 1-414): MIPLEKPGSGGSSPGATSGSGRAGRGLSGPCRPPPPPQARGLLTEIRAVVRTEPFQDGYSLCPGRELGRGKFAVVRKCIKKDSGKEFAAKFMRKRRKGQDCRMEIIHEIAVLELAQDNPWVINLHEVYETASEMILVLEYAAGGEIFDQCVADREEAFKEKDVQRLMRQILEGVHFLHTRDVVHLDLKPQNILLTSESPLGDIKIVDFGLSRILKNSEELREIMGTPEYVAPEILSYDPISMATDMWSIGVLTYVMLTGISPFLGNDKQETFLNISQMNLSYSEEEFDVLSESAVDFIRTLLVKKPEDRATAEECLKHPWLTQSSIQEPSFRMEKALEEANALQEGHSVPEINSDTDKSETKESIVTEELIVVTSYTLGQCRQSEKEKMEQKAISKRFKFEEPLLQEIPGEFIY
On the procedure:
as §1

For another assay, the target named is T2, ULK2 (Homo sapiens, UniProt Q8IYT8).
T2 sequence (Q8IYT8 1-1036): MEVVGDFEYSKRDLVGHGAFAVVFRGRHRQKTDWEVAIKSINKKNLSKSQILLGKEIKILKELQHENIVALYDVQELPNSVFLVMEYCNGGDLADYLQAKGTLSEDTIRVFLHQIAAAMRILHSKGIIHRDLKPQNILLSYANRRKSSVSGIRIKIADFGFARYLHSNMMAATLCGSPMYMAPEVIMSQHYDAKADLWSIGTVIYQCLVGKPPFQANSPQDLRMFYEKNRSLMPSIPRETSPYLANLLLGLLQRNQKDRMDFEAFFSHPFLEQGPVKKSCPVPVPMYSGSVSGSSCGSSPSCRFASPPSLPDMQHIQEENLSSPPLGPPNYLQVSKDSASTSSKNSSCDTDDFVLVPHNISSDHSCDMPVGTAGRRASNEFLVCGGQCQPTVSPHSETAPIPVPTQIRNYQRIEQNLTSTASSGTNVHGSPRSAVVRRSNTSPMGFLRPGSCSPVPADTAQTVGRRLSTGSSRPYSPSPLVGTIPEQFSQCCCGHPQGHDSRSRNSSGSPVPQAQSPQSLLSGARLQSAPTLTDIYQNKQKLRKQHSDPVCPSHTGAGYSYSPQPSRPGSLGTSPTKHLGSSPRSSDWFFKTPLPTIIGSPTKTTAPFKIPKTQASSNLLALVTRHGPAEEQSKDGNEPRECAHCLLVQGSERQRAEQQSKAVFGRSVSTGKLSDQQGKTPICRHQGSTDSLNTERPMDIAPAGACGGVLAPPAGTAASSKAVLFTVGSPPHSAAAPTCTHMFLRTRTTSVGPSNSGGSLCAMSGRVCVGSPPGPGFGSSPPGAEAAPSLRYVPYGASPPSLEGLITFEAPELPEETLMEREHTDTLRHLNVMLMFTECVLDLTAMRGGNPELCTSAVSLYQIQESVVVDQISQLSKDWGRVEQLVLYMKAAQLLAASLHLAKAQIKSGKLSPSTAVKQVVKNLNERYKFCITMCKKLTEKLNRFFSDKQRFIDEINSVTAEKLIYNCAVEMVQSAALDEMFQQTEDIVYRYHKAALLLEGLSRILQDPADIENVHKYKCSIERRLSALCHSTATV
As to the method: as §1

A further assay has as its target T3, MAP3K7 (Homo sapiens, UniProt O43318).
T3 sequence (O43318 1-606): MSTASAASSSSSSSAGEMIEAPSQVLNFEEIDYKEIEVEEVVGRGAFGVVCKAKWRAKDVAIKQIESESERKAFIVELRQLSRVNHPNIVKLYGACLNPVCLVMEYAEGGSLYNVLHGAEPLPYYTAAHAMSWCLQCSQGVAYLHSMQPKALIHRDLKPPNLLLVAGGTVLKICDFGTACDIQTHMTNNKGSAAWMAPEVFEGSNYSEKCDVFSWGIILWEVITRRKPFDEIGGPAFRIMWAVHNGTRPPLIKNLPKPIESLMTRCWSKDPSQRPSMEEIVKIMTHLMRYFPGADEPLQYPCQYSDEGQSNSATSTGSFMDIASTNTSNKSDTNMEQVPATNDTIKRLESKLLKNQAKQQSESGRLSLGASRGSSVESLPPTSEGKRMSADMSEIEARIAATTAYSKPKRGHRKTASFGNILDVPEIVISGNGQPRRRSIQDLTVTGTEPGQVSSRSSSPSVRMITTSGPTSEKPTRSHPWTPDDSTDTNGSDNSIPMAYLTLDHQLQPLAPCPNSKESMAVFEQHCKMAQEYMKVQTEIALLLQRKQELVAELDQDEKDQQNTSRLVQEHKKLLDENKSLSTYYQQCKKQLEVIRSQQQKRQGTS
On the procedure:
as §1

SMILES strings stand for the structures.

This passage reports IC50 results from paper PMC12391391, “The balance between B55α and Greatwall expression levels predicts sensitivity to Greatwall inhibition in cancer cells” (Nature Communications, 2025).

GSK3B, sequence (P49841 whole entry): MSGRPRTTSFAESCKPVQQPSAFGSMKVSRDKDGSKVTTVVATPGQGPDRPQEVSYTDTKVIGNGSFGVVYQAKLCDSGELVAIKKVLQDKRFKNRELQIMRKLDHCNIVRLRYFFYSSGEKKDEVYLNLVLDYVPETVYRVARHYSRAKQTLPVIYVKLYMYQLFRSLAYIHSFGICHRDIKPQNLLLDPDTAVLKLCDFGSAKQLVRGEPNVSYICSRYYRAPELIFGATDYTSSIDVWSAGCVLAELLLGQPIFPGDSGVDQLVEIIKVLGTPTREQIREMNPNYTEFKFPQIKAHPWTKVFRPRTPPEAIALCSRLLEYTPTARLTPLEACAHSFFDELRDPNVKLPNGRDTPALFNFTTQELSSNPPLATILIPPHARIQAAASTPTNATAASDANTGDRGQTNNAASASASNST

In the case of `CNC(=O)c1c[nH]c2ncc(-c3ccc(OCCN4CCC(c5ccccc5)C4)cc3)nc12` (racemic) [compound 21, C-604], the IC50 at GSK3B is 283 nM; on STK17A, 154 nM; on ULK2, 21.6 nM; on MAP3K7 it was 126 nM.

As a reminder, the IC50 is the concentration at which inhibition is half-maximal.
